Type in all cases: cell-based
Test [1] has as its system S. maltophilia clinical isolates. Nature of the test: Broth microdilution MIC, clinical isolate strains (NAUTICA). The settings on record: clinical isolates, one table line per isolate; unit assumed. The source says:
(§1) All clinical isolates tested were from The North American Urinary Tract Infection Collaborative Alliance (NAUTICA) which is a UTI surveillance study involving 40 medical centres (30 from the US and 10 from Canada). Each centre submitted up to 50 consecutive outpatient midstream urine isolates. All isolates were deemed significant urinary tract pathogens by individual laboratory criteria and identified to the species level by each laboratory's existing protocol. Isolates were transported to the coordinating laboratory (Health Sciences Centre, Winnipeg, Canada) on charcoal swabs. Only one isolate per patient was accepted. Upon receipt, isolates were cultured by the coordinating laboratory, stocked in skim milk, and stored at −80° C. awaiting reference antibiotic susceptibility testing. Elementary demographic information was also compiled for each isolate. Isolates were selected randomly from the above pool to represent 18 different species of Enterobacteriaceae and non-Enterobacteriaceae. An average of 5 strains of each species were tested for a total of 93 organisms. In addition, 23 reference (ATCC) [both gram negative and gram positive] strains were tested.
(§2) Susceptibilities to the compounds were determined using the National Committee for Clinical Laboratory Standards (NCCLS) M7-A6 broth microdilution method. […] DMSO controls were incorporated into the panel to mimic the quantity of DMSO used in dissolving some of the compounds at the higher concentrations. Each final panel well volume was 100 μl with a bacterial inoculum of 5×10^5 colony forming units (CFU)/ml. Panels were read following 16 to 20 hours of incubation at 35° C. in ambient air. The minimum inhibitory concentration (MIC) was defined as the lowest concentration of antimicrobial inhibiting visible growth. Quality control (QC) was performed using four ATCC QC organisms that were run with every batch set up to insure reproducibility.

Test [2] has as its system P. retgerri clinical isolates. Described as above. The settings on record: clinical isolates, one table line per isolate; unit assumed.
Description: as §1, §2

The subject of test [3] is E. aerogenes clinical isolates. The test is described as above. The note with it: clinical isolates, one table line per isolate; unit assumed.
Description: as §1, §2

Test [4] has as its system E. coli clinical isolates. The test is described as above. The settings on record: clinical isolates, one table line per isolate; unit assumed.
Description: as §1, §2

Test [5] deals with P. vulgaris clinical isolates. The test is described as above. The note with it: clinical isolates, one table line per isolate; unit assumed.
Description: as §1, §2

Test [6] deals with M. morganii clinical isolates. The test is described as above. The settings on record: clinical isolates, one table line per isolate; unit assumed.
Description: as §1, §2

Test [7] concerns P. mirabilis clinical isolates. The test is described as above. The note with it: clinical isolates, one table line per isolate; unit assumed.
Description: as §1, §2

In test [8] the test system is C. amalonaticus clinical isolates. The description is as above. The settings on record: clinical isolates, one table line per isolate; unit assumed.
Description: as §1, §2

Test [9] deals with K. pneumoniae clinical isolates. The test is described as above. The settings on record: clinical isolates, one table line per isolate; unit assumed.
Description: as §1, §2

Test [10] deals with S. liquifaciens clinical isolates. The test is described as above. The note with it: clinical isolates, one table line per isolate; unit assumed.
Description: as §1, §2

Test [11] deals with C. freundii clinical isolates. The description is as above. The settings on record: clinical isolates, one table line per isolate; in µg/mL (unit assumed).
Description: as §1, §2

Test [12] concerns S. marcescens clinical isolates. The description is as above. The settings on record: clinical isolates, one table line per isolate; unit assumed.
Description: as §1, §2

The test system of test [13] is K. oxytoca clinical isolates. The description is as above. The settings on record: clinical isolates, one table line per isolate; unit assumed.
Description: as §1, §2

The subject of test [14] is E. cloacae clinical isolates. Described as above. The note with it: clinical isolates, one table line per isolate; unit assumed.
Description: as §1, §2

In test [15] the test system is C. koseril clinical isolates. The description is as above. The note with it: clinical isolates, one table line per isolate; unit assumed.
Description: as §1, §2

The subject of another test is P. rettgeri CAP. The experiment in a line: Broth microdilution MIC, reference strains. The settings on record: Providencia rettgeri, read-out: MIC (growth inhibition, microdilution method).
Description: as §1, §2
A general note: Dilution methods test growth across graded concentrations, often in twofold steps.

The subject of test [16] is B. cepacia clinical isolates. Nature of the test: Broth microdilution MIC, clinical isolate strains (NAUTICA). The settings on record: clinical isolates, one table line per isolate; unit assumed.
Description: as §1, §2

The subject of test [17] is P. stuartii clinical isolates. Described as above. The note with it: clinical isolates, one table line per isolate; unit assumed.
Description: as §1, §2

The subject of test [18] is A. baumanii clinical isolates. The test is described as above. The settings on record: clinical isolates, one table line per isolate; unit assumed.
Description: as §1, §2

Each structure is given as a SMILES string. ≈ marks a conversion by molar mass, not a printed value. Read-outs that look alike come from different tables or passages of the source.

Consider four compounds from US8835476B2, “Synthesis of novel antimicrobials” (priority 2005, dated 2014).

As a reminder, the MIC is the least concentration at which growth counts as inhibited. On to `CCOC(=O)c1cc(-c2nnn[nH]2)c(-c2ccc(F)cc2)s1` [DNM-124, 5-(4-Fluoro-phenyl)-4-(1H-tetrazol-5-yl)-thiophene-2-carboxylic acid ethyl ester], for which the MIC, S. MALTOPHILIA in test [1] is > 64 µg/mL. The MIC, P. RETTGERI in [2] is > 64 µg/mL. In addition, the MIC, E. AEROGENES in test [3] is > 64 µg/mL. Further, in test [4], the MIC, E. COLI was > 64 µg/mL. In addition, the MIC, P. VULGARIS in test [5] was > 64 µg/mL. In addition, the MIC, M. MORGANII in test [6] is > 64 µg/mL. Moreover, the MIC, P. MIRABILIS in test [7] was > 64 µg/mL. For the same compound, the MIC, C. AMALONATICUS in [8] is > 64 µg/mL. For the same compound, in test [9], the MIC, K. PNEUMONIAE is > 64 µg/mL. Also, in [10], the MIC, S. LIQUEFACIENS is > 64 µg/mL. In test [11], the “MIC, C. FREUNDII” value is listed as >64. Moreover, in [12], the MIC, S. MARCESCENS is > 64 µg/mL. Also, in test [13], the MIC, K. OXYTOCA was > 64 µg/mL. In addition, the MIC, E. CLOACAE in test [14] was > 64 µg/mL. Moreover, the MIC, C. KOSERI in test [15] was > 64 µg/mL. In the test with P. rettgeri CAP (P. rettgeri (CAP in Table 1)), the MIC was > 64 µg/mL.
Regarding `Cn1nnc(-c2cc(C(=O)O)sc2-c2ccc(F)cc2)n1` [DNM-123, 5-(4-fluorophenyl)-4-(2-methyl-2H-tetrazol-5-yl)thiophene-2-carboxylic acid], in test [11], the “MIC, C. FREUNDII” value turned out to be 8. Besides, the MIC in the test with P. rettgeri CAP (P. rettgeri (CAP in Table 1)) is > 8 µg/mL.
In the case of `Cn1nnc(-c2cc(C(=O)O)sc2C(=O)O)n1` [DNM-112, 3-(2-Methyl-2H-tetrazol-5-yl)-thiophene-2,5-dicarboxylic acid], the MIC, B. CEPACIA in test [16] was > 256 µg/mL. For the same compound, in test [17], the MIC, P. STUARTII is > 256 µg/mL. Besides, the MIC, S. MALTOPHILIA in [1] is > 256 µg/mL. Moreover, the MIC, P. RETTGERI in test [2] was > 256 µg/mL. Moreover, in test [18], the MIC, A. BAUMANII is > 256 µg/mL. In test [3], the MIC, E. AEROGENES was > 256 µg/mL. In test [4], the MIC, E. COLI was > 256 µg/mL. In addition, the MIC, P. VULGARIS in [5] is > 256 µg/mL. Moreover, the MIC, M. MORGANII in test [6] was > 256 µg/mL. The MIC, P. MIRABILIS in [7] is > 256 µg/mL. Besides, the MIC, C. AMALONATICUS in test [8] was > 256 µg/mL. Besides, the MIC, K. PNEUMONIAE in [9] is > 256 µg/mL. Further, the MIC, S. LIQUEFACIENS in test [10] is > 256 µg/mL. In addition, in [11], the “MIC, C. FREUNDII” value is >256. Further, the MIC, S. MARCESCENS in test [12] is > 256 µg/mL. For the same compound, the MIC, K. OXYTOCA in [13] was > 256 µg/mL. In [14], the MIC, E. CLOACAE was > 256 µg/mL. In test [15], the MIC, C. KOSERI was > 256 µg/mL. The MIC with P. rettgeri CAP was > 256 µg/mL.
The compound `O=C(O)c1cc(-c2nn[nH]n2)cs1` [DNM-116, 4-(2H-Tetrazol-5-yl)-thiophene-2-carboxylic acid] displayed an MIC, B. CEPACIA in test [16] of 16 µg/mL (≈ 81.6 µM). In test [17], the MIC, P. STUARTII stood at 16 µg/mL (≈ 81.6 µM). Besides, the MIC, S. MALTOPHILIA in test [1] is 16 µg/mL (≈ 81.6 µM). This compound also showed an MIC, P. RETTGERI in test [2] of 16 µg/mL (≈ 81.6 µM). For the same compound, the MIC, A. BAUMANII in test [18] came out at 16 µg/mL (≈ 81.6 µM). Besides, the MIC, E. AEROGENES in [3] came to 16 µg/mL (≈ 81.6 µM). In [6], this compound showed an MIC, M. MORGANII of 16 µg/mL (≈ 81.6 µM). Also, the MIC, P. MIRABILIS in [7] was 16 µg/mL (≈ 81.6 µM). The compound also yielded an MIC, C. AMALONATICUS in test [8] of 16 µg/mL (≈ 81.6 µM). In addition, the MIC, K. PNEUMONIAE in test [9] is 16 µg/mL (≈ 81.6 µM). Also, the MIC, S. LIQUEFACIENS in [10] worked out at 16 µg/mL (≈ 81.6 µM). For the same compound, in test [11], the “MIC, C. FREUNDII” value was determined as 16. Further, the MIC, S. MARCESCENS in [12] was 16 µg/mL (≈ 81.6 µM). Besides, the MIC, K. OXYTOCA in [13] turned out to be 16 µg/mL (≈ 81.6 µM). The MIC, E. CLOACAE in test [14] was 16 µg/mL (≈ 81.6 µM). In test [15], this compound yielded an MIC, C. KOSERI of 16 µg/mL (≈ 81.6 µM). Further, the MIC in the test with P. rettgeri CAP (P. rettgeri (CAP in Table 1)) is 32 µg/mL (≈ 163 µM).
